Assay type in all cases: in vivo
Data set [1] concerns Pinus halepensis cuttings. Kind of data set: rooting and root development in pine cuttings. As to conditions: 400 ppm IBA potassium salt + 5 ppm conjugate, 4 hours dip; 12 weeks. On the procedure:
The effects of exemplary D-amino acid conjugates of 4-CPA (Compounds to and Is) on rooting in Pinus halepensis cuttings were compared with those of 2-DP-glycine methyl ester conjugate (2-DP-Gly). Rooting mature pine cuttings (i.e., cuttings that are taken from trees more than 4 years old) is very difficult.
Apical cuttings were taken from 7-year-old trees, stored for 4 weeks at 4° C., and treated by dipping the cutting bases for 4 hours in the following solution: 400 ppm IBA potassium salt+5 ppm tested conjugate+0.1% Amistar™ fungicide (250 grams/liter azoxystrobin). The cuttings were evaluated after 12 weeks.

For data set [2], the system named is avocado rootstock cuttings. In words: rooting of avocado rootstock cuttings. Particulars: vc51 rootstock, IBA with compound. The gist of the method: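 Green cuttings of avocado rootstock (including hard-to-root VC801) were treated with auxin conjugates in the presence of IBA and scored for rooting.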
Data set [3] is described as follows: 4-CPA levels in Eucalyptus grandis cuttings by LC-MS (translocation, release from conjugates). On the procedure:
E. grandis cuttings were harvested at time 0, 1, 6 and 24 hours after the indicated treatments. The cutting foliage and basal ends (approximately 2-3 cm of the base) were harvested separately using a sharp pruning shear, rinsed well under a tap water stream, wiped with a paper towel and frozen in liquid nitrogen. Then, each sample was grinded well while still frozen, using an IKA lab mill. For the analysis, 3-6 technical replicates, weight 190-240 mg, were taken from each sample into fresh 2 ml Eppendorf™ tubes. Auxins were extracted in 1 ml of cold 79% isopropanol, 20% methanol and 1% acetic acid solution containing 20 ng of […] IBA and IAA as internal standards. The tubes were vortexed for 1 hr at 4° C. and then centrifuged at 14,000 RPM for 15 minutes. The supernatants were transferred to fresh 2 ml Eppendorf™ tubes. Two more extraction cycles were performed using 0.5 ml of extraction solvent without the internal standards. The tubes containing the collected supernatants were placed in a SpeedVac™ centrifuge for solvent evaporation under room temperature. The pellets were dissolved in pre-chilled 200 μl of 50% methanol, centrifuged, and the supernatant was filtered through […] PDFV syringe filters 13 mm into fresh 2 ml tubes. The ready extractions were kept under −20° C. till analyzed.
LC-MS analyses were conducted using UPLC-Triple Quadrupole-MS device (Waters Xevo TQ MS). Separation was performed on Waters Acquity™ UPLC BEH C18 1.7 μm 2.1×100 mm column with a VanGuard™ precolumn (BEH C18 1.7 μm 2.1×5 mm). Chromatographic and MS parameters were as follows: the mobile phase consisted of water (phase A) and acetonitrile (phase B), both containing 0.1% formic acid in the gradient elution mode. The solvent gradient program was as follows: […]
The flow rate was 0.3 ml/minute, and the column temperature was kept at 35° C. The analyses were performed using the ESI source in negative ion mode with the following settings: capillary voltage 3.1 kV, cone voltage 30 V, desolvation temperature 400° C., desolvation gas flow 565 liters/hour, source temperature 140° C. Quantitation was performed using MRM acquisition by monitoring the 185/127, 185/141, RT=5.77, dwell time of 161 msec for each transition. Calibration curve was used to calculate the concentration of 4-CPA. Acquisition of LC-MS data was performed under MassLynx™ V4.1 software (Waters).
In order to determine whether trend observed in Arabidopsis occurs also in eucalyptus cuttings, the 4-CPA translocation directionality was first examined by treating cuttings with 4-CPA (100 μM) either by submergence of the cutting base or by spraying the leaves. At several time points (i.e. 0, 1, 6 and 24 hours), the cutting base (bottom 2 cm) and the leaves were separately extracted (with isopropanol/methanol/acetic acid solution) and 4-CPA levels were determined by HPLC-MS/MS.
In order to evaluate the rate of conjugates hydrolysis, 4-CPA levels were monitored following treatment with Compounds 1s and 1t. Cuttings were treated with IBA alone (by submerging the cutting base), or with IBA and Compound 1s or it by submerging the cutting base and by spraying the leaves with Compound 1s or 1t. Cutting bases (bottom 2 cm) and leaves were separately extracted 6, 24 and 48 hours after treatment and hormones levels were determined by HPLC-MS/MS.

The mark [4] stands for this setting: 100 μM 4-CPA applied to the cutting base.

Marks after values point to notes of the source that are not given here.

On to `COC(=O)[C@@H](Cc1c[nH]c2ccccc12)NC(=O)COc1ccc(Cl)cc1` [Compound 1s, 4-CPA-D-Trp], for which, in data set [1], the “Degree of root development Medium (%)” value worked out at 0%, the “Degree of root development Weak (%)” value amounted to 6.2%, the “Degree of root development Well-developed (%)” value is listed as 81.3* % and the “Rooting rate (%)” value amounted to 92.9%. Also, in data set [2], the “roots per cutting of green avocado branches compared with etiolated branches treated with IBA, in words” value is “considerably more roots per cutting”. Further, the “rooting success rate of green avocado branches, in words” value in data set [2] (compared with IBA alone) is reported as “considerably enhanced the rooting success rate”.
For the compound `O=C(O)COc1ccc(Cl)cc1` [Compound 4-CPA, 4-chloro-phenoxyacetic acid, reference compound], in data set [3] (100 μM 4-CPA applied to leaves by spraying), the “4-CPA level locally (leaves) and in the cutting base” value is recorded as “about 150 ng/gram”. Besides, in data set [3] (setting [4]), the “4-CPA level in leaves” value is listed as “less than 10 ng/gram” and the “4-CPA level in the cutting base (local)” value is given as “about 275 ng/gram”. In addition, the “time at which 4-CPA levels peaked following application to the leaves” value in data set [3] (100 μM 4-CPA sprayed on leaves) stood at 6 h. For the same compound, the “4-CPA levels throughout the measurements” value in data set [3] (treatment with free 4-CPA or with conjugate) was 250-300 ng/gram.
